{
  "source": "ChEMBL document CHEMBL1201862",
  "about": "“PubChem BioAssay data set” (2004)",
  "key": {"[1]": {"test": "inhibitors of firefly luciferase expression or activity, dose response, H4 neuroglioma cells, luminescence (AID 1990)", "type": "functional, cell-based"}, "[2]": {"test": "Luminescence Cell-Based Dose Response HTS to Identify Inhibitors of 5'UTR Stem-Loop Driven Prion Protein mRNA Translation in H4 Neuroglioblastoma Cells. [Related pubchem assays: 1827 (Project Summary), 1813 (Primary HTS)]", "type": "functional"}, "Vero": {"system": "Vero", "test": "host cell cytotoxicity of antiviral hits, dose response, cytotoxicity control for West Nile virus antiviral project, secondary assay (AID 1650)", "type": "functional", "conditions": "Chlorocebus sabaeus"}, "[3]": {"test": "inhibitors of SNCA 5'UTR-driven reporter translation, confirmation, H4 neuroglioma cells, luminescence (AID 1988)", "type": "functional, cell-based"}, "[4]": {"test": "Luminescence Cell-Based Dose Retest to Confirm Inhibitors of Cancer Stem Cells. [Related pubchem assays (depositor defined):AID2717, AID2721]", "type": "functional", "conditions": "Homo sapiens"}, "Galanin receptor type 3": {"biological_target": "T1, Galanin receptor type 3 (Homo sapiens, UniProt O60755)", "T1 sequence (O60755 whole entry)": "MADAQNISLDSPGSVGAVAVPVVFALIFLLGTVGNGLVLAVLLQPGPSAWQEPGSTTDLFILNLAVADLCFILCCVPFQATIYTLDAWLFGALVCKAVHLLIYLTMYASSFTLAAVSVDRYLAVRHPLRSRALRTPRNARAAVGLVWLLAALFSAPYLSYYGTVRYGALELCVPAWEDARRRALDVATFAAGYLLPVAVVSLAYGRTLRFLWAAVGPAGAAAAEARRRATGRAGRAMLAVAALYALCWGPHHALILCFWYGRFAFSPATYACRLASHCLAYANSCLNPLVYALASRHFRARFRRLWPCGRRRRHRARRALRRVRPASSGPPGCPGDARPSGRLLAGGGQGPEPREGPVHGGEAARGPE", "test": "Fluorescence-based cell-based primary high throughput dose response assay to identify antagonists of the Galanin Receptor 3 (GalR3).", "type": "functional"}, "cells [5]": {"test": "cells", "type": "functional, cell-based", "conditions": "HEK-CNG"}, "[6]": {"test": "HEp-2 cell cytotoxicity, dose response, cytotoxicity control for RSV inhibitor project, HTS (AID 2410)", "type": "functional", "conditions": "human respiratory syncytial virus"}, "cells [7]": {"test": "cells"}, "[8]": {"biological_target": "T2, RNA-binding protein pos-1 (Caenorhabditis elegans, UniProt G5EF15)", "T2 sequence (G5EF15 whole entry)": "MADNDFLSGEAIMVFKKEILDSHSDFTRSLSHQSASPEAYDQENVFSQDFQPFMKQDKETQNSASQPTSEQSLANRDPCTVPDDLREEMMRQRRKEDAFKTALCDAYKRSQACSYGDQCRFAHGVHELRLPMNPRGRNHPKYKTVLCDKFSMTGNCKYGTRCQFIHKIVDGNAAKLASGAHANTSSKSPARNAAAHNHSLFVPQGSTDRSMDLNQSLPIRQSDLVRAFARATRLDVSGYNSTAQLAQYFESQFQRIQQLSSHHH", "test": "inhibitors of POS-1/mex-3 RNA binding, dose response, biochemical, fluorescence polarization (AID 1964);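 further: purified POS-1 fused to maltose binding protein made in E. coli; potency of compounds blocking POS-1 binding to fluorescent RNA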"}, "[9]": {"biological_target": "T3, Zinc finger protein mex-5 (Caenorhabditis elegans, UniProt Q9XUB2)", "T3 sequence (Q9XUB2 whole entry)": "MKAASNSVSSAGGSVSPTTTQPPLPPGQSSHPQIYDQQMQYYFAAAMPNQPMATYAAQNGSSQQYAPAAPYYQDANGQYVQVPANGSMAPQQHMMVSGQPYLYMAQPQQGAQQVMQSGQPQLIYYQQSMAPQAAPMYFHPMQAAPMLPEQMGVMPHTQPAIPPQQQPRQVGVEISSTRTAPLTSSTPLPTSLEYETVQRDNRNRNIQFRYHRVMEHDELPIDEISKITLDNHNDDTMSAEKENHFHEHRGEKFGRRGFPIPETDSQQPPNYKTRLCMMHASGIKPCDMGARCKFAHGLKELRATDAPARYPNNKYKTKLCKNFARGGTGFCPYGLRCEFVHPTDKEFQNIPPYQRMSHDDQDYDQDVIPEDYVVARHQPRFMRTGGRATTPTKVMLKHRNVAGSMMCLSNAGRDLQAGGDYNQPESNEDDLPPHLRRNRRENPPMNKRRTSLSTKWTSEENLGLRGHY", "test": "MEX-5/TCR-2 RNA interaction inhibitors, dose response, biochemical, C. elegans, fluorescence polarization (AID 1960)"}, "[10]": {"biological_target": "Induced myeloid leukemia cell differentiation protein Mcl-1 (Homo sapiens, UniProt Q07820)", "sequence (Q07820 whole entry)": "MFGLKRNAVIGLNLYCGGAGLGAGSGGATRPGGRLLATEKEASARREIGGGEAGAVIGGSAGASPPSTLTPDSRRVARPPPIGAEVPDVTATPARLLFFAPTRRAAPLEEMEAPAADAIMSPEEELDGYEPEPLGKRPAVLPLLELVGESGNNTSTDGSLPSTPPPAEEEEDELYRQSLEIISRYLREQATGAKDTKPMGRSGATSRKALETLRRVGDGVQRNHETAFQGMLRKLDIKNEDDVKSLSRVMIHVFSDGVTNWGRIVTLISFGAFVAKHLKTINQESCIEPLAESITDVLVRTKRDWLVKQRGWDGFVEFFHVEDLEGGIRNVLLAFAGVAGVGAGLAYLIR", "type": "functional"}, "Cytochrome P450 2C9 [11]": {"biological_target": "T4, Cytochrome P450 2C9 (Homo sapiens, UniProt P11712)", "T4 sequence (P11712 whole entry)": "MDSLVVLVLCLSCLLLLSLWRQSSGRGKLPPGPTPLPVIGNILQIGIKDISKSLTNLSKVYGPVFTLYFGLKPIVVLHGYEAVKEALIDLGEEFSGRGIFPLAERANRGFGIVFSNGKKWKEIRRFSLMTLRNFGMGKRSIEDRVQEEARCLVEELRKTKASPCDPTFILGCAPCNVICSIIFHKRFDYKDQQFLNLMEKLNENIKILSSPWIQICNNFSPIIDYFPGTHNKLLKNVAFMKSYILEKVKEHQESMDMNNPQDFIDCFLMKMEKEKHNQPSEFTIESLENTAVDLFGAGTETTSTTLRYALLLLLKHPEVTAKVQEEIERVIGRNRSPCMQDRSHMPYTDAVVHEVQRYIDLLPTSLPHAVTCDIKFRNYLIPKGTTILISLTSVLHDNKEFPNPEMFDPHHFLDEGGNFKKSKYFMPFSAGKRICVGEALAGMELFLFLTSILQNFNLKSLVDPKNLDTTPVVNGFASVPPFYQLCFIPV", "conditions": "Potency"}, "Cytochrome P450 2D6": {"biological_target": "Cytochrome P450 2D6 (Homo sapiens, UniProt P10635)", "sequence (P10635 whole entry)": "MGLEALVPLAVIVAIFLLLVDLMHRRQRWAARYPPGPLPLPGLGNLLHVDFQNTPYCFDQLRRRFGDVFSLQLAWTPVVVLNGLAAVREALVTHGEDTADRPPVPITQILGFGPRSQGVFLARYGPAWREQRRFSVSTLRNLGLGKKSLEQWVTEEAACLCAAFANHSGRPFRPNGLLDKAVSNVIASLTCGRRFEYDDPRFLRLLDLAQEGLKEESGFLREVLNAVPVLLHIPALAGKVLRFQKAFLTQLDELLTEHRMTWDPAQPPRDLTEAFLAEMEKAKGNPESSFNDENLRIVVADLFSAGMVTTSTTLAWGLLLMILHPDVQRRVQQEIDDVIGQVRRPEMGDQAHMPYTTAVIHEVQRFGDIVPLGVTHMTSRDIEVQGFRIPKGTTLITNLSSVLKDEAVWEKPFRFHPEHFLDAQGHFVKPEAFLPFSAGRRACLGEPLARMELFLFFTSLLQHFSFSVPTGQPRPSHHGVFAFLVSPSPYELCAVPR"}, "Cytochrome P450 2C9 [12]": {"biological_target": "T4, Cytochrome P450 2C9"}, "[13]": {"biological_target": "T5, RNA-editing ligase 1, mitochondrial (Trypanosoma brucei brucei, UniProt P86926)", "T5 sequence (P86926 whole entry)": "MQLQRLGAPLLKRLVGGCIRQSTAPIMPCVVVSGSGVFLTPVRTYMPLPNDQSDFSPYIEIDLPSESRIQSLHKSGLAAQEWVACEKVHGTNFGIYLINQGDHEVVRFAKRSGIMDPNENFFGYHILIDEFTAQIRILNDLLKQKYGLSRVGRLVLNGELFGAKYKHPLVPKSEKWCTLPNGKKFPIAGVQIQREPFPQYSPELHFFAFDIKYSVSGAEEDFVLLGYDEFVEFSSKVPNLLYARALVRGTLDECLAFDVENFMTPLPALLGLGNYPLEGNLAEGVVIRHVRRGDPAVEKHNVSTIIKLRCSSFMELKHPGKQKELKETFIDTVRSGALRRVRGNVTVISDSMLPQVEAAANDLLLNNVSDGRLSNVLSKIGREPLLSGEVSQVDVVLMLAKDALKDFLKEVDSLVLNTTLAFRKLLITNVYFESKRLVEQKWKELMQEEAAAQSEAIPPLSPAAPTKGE", "test": "TbREL1 ligase inhibitors, dose response, biochemical, fluorescence, Trypanosoma brucei (AID 1117295)", "type": "functional"}, "[14]": {"test": "A cytotoxicity screen of small molecule inhibitors of the PhoP region in Salmonella typhi identified in the primary screen. [Related pubchem assays: 1850, 1864, 1985 ]", "type": "functional"}, "[15]": {"test": "inhibitors of intracellular T. cruzi replication, confirmation, NIH3T3 host cells, beta-gal luminescence (AID 2044);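 further: luminescent beta-galactosidase reporter signal from transgenic T. cruzi replicating inside host cells; inhibitors lower the luminescence signal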", "type": "functional, cell-based"}, "[16]": {"test": "cytotoxicity toward NIH3T3 fibroblasts, dose response, counter-screen, cell-based, ATP luminescence, mouse fibroblasts (AID 2010);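 further: cells exposed to compound for about 90 hours before reading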", "type": "functional"}, "Protein Tat": {"biological_target": "T6, Protein Tat (Human immunodeficiency virus type 1 group M subtype B (isolate HXB2)(HIV-1), UniProt P04608)", "T6 sequence (P04608 whole entry)": "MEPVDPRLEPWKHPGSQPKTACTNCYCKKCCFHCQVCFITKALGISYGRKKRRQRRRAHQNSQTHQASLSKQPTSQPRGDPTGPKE", "type": "functional"}, "[17]": {"test": "inhibitors of Vif binding to APOBEC3G peptide, primary screen, biochemical, TR-FRET, GST-Vif 1-94, biotin-A3G peptide, dose response retest (AID 1117319);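 further: TR-FRET signal of purified GST-Vif binding a biotinylated A3G peptide; inhibitors lower the FRET signal by blocking Vif and A3G binding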", "type": "functional"}},
  "note": "Calls of active or inactive are those of the source.",
  "data": [
    {"smiles": "C[C@]12CC[C@H]3C(CCC4(O)CC(O)CC[C@]34C=O)C1=CC[C@H]2c1ccc(=O)oc1", "note": "(some centres not stated)", "values": [
      {"measurement": "EC50", "setting": "[1]", "result": "6.93 µM (active)"},
      {"measurement": "EC50", "setting": "[2]", "result": "5.93 µM (active)"},
      {"measurement": "CC50", "setting": "Vero", "result": "20.5 µM (active)"},
      {"measurement": "EC50", "setting": "[3]", "result": "1.62 µM (active)"},
      {"measurement": "AC50", "setting": "[4]", "result": "3.49 µM (active)"},
      {"measurement": "IC50", "setting": "Galanin receptor type 3", "result": "> 29.9 µM (inactive)"},
      {"measurement": "EC50", "setting": "cells [5]", "result": "> 29.9 µM (inactive)"}
    ]},
    {"smiles": "NC(=O)[C@H]1CC2(CC(c3cccc(NC(=O)COc4ccc(Cl)cc4)c3)=NO2)CN1C(=O)c1ccccc1C(=O)c1ccccc1", "note": "(some centres not stated)", "values": [
      {"measurement": "CC50", "setting": "[6]", "result": "12.3 µM (active)"},
      {"measurement": "IC50", "setting": "cells [7]", "result": "24.9 µM (active)"}
    ]},
    {"smiles": "Cc1cc(C)c2c(c1)C1C=CCC1C(c1ccc(S(=O)(=O)N3CCOCC3)cc1)N2", "note": "(configuration not stated)", "values": [
      {"measurement": "CC50", "setting": "[6]", "result": "15.6 µM (active)"},
      {"measurement": "EC50", "setting": "[8]", "result": "> 300 µM (not active)"},
      {"measurement": "EC50", "setting": "[9]", "result": "> 300 µM (not active)"},
      {"measurement": "IC50", "setting": "[10]", "result": "2.74 µM (active)"},
      {"measurement": "IC50", "setting": "cells [7]", "result": "11.7 µM (active)"}
    ]},
    {"smiles": "C[C@@H](/C=C\\c1cccc(Oc2ccc(F)cc2)c1)N(O)C(N)=O", "values": [
      {"measurement": "AC50", "setting": "Cytochrome P450 2C9 [11]", "result": "25.1 µM (inconclusive)"},
      {"measurement": "AC50", "setting": "Cytochrome P450 2D6", "result": "10 µM (inconclusive)"},
      {"measurement": "AC50", "setting": "Cytochrome P450 2C9 [12]", "result": "31.6 µM (inconclusive)"}
    ]},
    {"smiles": "CC(NCC(O)COc1ccc2ccccc2c1)c1ccccc1", "note": "(configuration not stated)", "values": [
      {"measurement": "CC50", "setting": "[6]", "result": "24.1 µM (active)"},
      {"measurement": "IC50", "setting": "[13]", "result": "> 96.6 µM (inactive)"},
      {"measurement": "IC50", "setting": "cells [7]", "result": "> 25 µM (active)"}
    ]},
    {"smiles": "CCNc1nc(N)nc(Oc2ccc(OCCOc3ccc(Cl)cc3Cl)nn2)n1", "values": [
      {"measurement": "EC50", "setting": "[14]", "result": "> 50 µM (active)"},
      {"measurement": "EC50", "setting": "[15]", "result": "0.668 µM (active)"},
      {"measurement": "EC50", "setting": "[16]", "result": "6.72 µM (active)"}
    ]},
    {"smiles": "CC(C)C(c1nnnn1Cc1ccccc1)N(CCCO)Cc1cc2cc3c(cc2nc1O)OCO3", "note": "(configuration not stated)", "values": [
      {"measurement": "EC50", "setting": "[14]", "result": "> 50 µM (active)"}
    ]},
    {"smiles": "Cc1ccc(N2C(=O)[C@@H]3[C@H](C2=O)[C@H]2C=CC=NN2[C@@H]3C(=O)Nc2ccc(Cl)cc2)cc1", "values": [
      {"measurement": "EC50", "setting": "[14]", "result": "> 50 µM (active)"},
      {"measurement": "IC50", "setting": "Protein Tat", "result": "> 100 µM (active)"},
      {"measurement": "IC50", "setting": "[17]", "result": "> 100 µM (active)"}
    ]}
  ]
}
